Patent US9662327B2 (AGIOS PHARMACEUTICALS, INC, priority 2011, dated 2017)

Tests used:
U87R132H (U87MG) cells = test: Cellular assay for IDH1m inhibitors: inhibition of 2-HG production in U87MG (U87R132H) cells (LC-MS); assay type: cell-based; conditions: 48 hours
Method: (§1) Cells (e.g., HT1080 or U87MG) are grown in T125 flasks in DMEM containing 10% FBS, 1× penicillin/streptomycin and 500 ug/mL G418. They are harvested by trypsin and seeded into 96 well white bottom plates at a density of 5000 cell/well in 100 ul/well in DMEM with 10% FBS. No cells are plates in columns 1 and 12. Cells are incubated overnight at 37 C in 5% CO2. The next day compounds are made up at 2× concentration and 100 ul are added to each cell well. The final concentration of DMSO is 0.2% and the DMSO control wells are plated in row G. The plates are then placed in the incubator for 48 hours. At 48 hours, 100 ul of media is removed from each well and analyzed by LC-MS for 2-HG concentrations. The cell plate is placed back in the incubator for another 24 hours. At 72 hours post compound addition, 10 mL/plate of Promega Cell Titer Glo reagent is thawed and mixed. The cell plate is removed from the incubator and allowed to equilibrate to room temperature. Then 100 ul of reagent is added to each well of media. The cell plate is then placed on an orbital shaker for 10 minutes and then allowed to sit at room temperature for 20 minutes. The plate is then read for luminescence with an integration time of 500 ms.

IDH1 R132H = IDH1 R132H (Homo sapiens (Human), UniProt O75874, R132H); test: Assays for IDH1 R132H Inhibitors (NADPH/aKG, resazurin detection); assay type: biochemical; conditions: IDH1 R132H enzyme, Table 3; read-out: R132H IC50
Chain of IDH1 R132H (O75874 whole entry R132H): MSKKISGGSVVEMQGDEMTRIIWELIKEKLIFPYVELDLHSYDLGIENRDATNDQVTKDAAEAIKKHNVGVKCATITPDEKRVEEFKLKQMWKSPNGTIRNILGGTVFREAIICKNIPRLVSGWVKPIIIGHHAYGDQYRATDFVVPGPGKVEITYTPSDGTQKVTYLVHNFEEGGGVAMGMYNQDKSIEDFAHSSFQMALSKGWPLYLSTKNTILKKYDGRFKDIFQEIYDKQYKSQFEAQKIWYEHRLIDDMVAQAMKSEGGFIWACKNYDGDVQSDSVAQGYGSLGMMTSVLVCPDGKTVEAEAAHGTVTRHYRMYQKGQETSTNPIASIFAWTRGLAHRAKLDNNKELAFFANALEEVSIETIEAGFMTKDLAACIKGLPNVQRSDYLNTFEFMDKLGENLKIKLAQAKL
How it was run: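 Mutant enzyme in 150 mM NaCl, 10 mM MgCl2, 20 mM Tris pH 7.5, 0.03% BSA; compound in DMSO added to substrate mix of 8 uM NADPH and 2 mM aKG. Reaction ran 50 min at room temperature, then resazurin detection mix (30 μM) added for 5 min at room temperature.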

HT1080 cells = test: Cellular assay for IDH1m inhibitors: inhibition of 2-HG production in HT1080 cells (LC-MS); assay type: cell-based
Method: as §1

[1] = Homo sapiens, HT-1080, 48 hours

| IC50 (U87R132H (U87MG) cells; Homo sapiens, U-87 MG) | IC50 (IDH1 R132H) | IC50 (HT1080 cells; [1]) | SMILES | IC50 (U87R132H (U87MG) cells) | IC50 (HT1080 cells; 48 hours) |
| --- | --- | --- | --- | --- | --- |
| 500 to 1000 nM | < 500 nM | 500 to 1000 nM | CC(O)CC(=O)N1CCN(c2nc(C3CC3)c3c(c2C#N)CC(C)(C)OC3)C[C@H]1C(C)C (stereo partly drawn) [Compound 433, 8-cyclopropyl-6-((3R)-4-(3-hydroxybutanoyl)-3-isopropylpiperazin-1-yl)-3,3-dimethyl-3,4-dihydro-1H-pyrano[3,4-c]pyridine-5-carbonitrile] |  |  |
| < 500 nM | < 500 nM | < 500 nM | COCCC(=O)N1CCN(c2nc(C3CC3)c3c(c2C#N)CC(C)(C)OC3)C[C@H]1C1CC1 [Compound 434, (R)-8-cyclopropyl-6-(3-cyclopropyl-4-(3-methoxypropanoyl)piperazin-1-yl)-3,3-dimethyl-3,4-dihydro-1H-pyrano[3,4-c]pyridine-5-carbonitrile] |  |  |
| < 500 nM | < 500 nM | < 500 nM | CC1(C)Cc2c(C#N)c(N3CCN(C(=O)CC(F)(F)F)[C@H](C4CC4)C3)nc(C3CC3)c2CO1 [Compound 435, (R)-8-cyclopropyl-6-(3-cyclopropyl-4-(3,3,3-trifluoropropanoyl)piperazin-1-yl)-3,3-dimethyl-3,4-dihydro-1H-pyrano[3,4-c]pyridine-5-carbonitrile] |  |  |
| 1000 to 10000 nM | < 500 nM | 1000 to 10000 nM | CC(C)[C@@H]1CN(c2nc(C3CC3)c3c(c2C#N)CC(C)(C)OC3)CCN1C(=O)CCF [Compound 437, (R)-8-cyclopropyl-6-(4-(3-fluoropropanoyl)-3-isopropylpiperazin-1-yl)-3,3-dimethyl-3,4-dihydro-1H-pyrano[3,4-c]pyridine-5-carbonitrile] |  |  |
| < 500 nM | < 500 nM | < 500 nM | [2H]C1([2H])CN(c2nc(C3CC3)c3c(c2C#N)CC(C)(C)OC3)C([2H])([2H])[C@@]([2H])(C([2H])(C([2H])([2H])[2H])C([2H])([2H])[2H])N1C(=O)CCOC [Compound 438, (R)-8-cyclopropyl-3,3-dimethyl-6-(2,2,3,5,5-pentadeuterio-4-(3-methoxypropanoyl)-3-(perdeuteriopropan-2-yl)piperazin-1-yl)-3,4-dihydro-1H-pyrano[3,4-c]pyridine-5-carbonitrile] |  |  |
| < 500 nM | < 500 nM | < 500 nM | COC(=O)CC(=O)N1CCN(c2nc(C3CC3)c3c(c2C#N)CC(C)(C)OC3)C[C@H]1C1CC1 [Compound 440, (R)-methyl 3-(4-(5-cyano-8-cyclopropyl-3,3-dimethyl-3,4-dihydro-1H-pyrano[3,4-c]pyridin-6-yl)-2-cyclopropylpiperazin-1-yl)-3-oxopropanoate] |  |  |
| < 500 nM | < 500 nM | < 500 nM | [2H]C([2H])([2H])C([2H])(C([2H])([2H])[2H])[C@@]1([2H])N(C(=O)CCOC)C([2H])([2H])C([2H])([2H])N(c2nc(C3CC3)c3c(c2C#N)CC(C)(C)OC3)C1([2H])[2H] [Compound 441, (R)-8-cyclopropyl-6-(2,2,3,3,5,6,6-heptadeuterio-4-(3-methoxypropanoyl)-5-(perdeuteriopropan-2-yl)piperazin-1-yl)-3,3-dimethyl-3,4-dihydro-1H-pyrano[3,4-c]pyridine-5-carbonitrile] |  |  |
| 500 to 1000 nM | < 500 nM | 500 to 1000 nM | CC(O)CC(=O)N1CCN(c2nc(C3CC3)c3c(c2C#N)CC(C)(C)OC3)C[C@H]1C1CC1 (stereo partly drawn) [Compound 442, 8-cyclopropyl-6-((3R)-3-cyclopropyl-4-(3-hydroxybutanoyl)piperazin-1-yl)-3,3-dimethyl-3,4-dihydro-1H-pyrano[3,4-c]pyridine-5-carbonitrile] |  |  |
| 1000 to 10000 nM | < 500 nM | 1000 to 10000 nM | CC(C)[C@@H]1CN(c2nc(C3CC3)c3c(c2C#N)CC(C)(C)OC3)CCN1C(=O)CCCO [Compound 443, (R)-8-cyclopropyl-6-(4-(4-hydroxybutanoyl)-3-isopropylpiperazin-1-yl)-3,3-dimethyl-3,4-dihydro-1H-pyrano[3,4-c]pyridine-5-carbonitrile] |  |  |
| < 500 nM | < 500 nM | < 500 nM | [2H]C1([2H])CN(C(=O)CCOC)[C@]([2H])(C([2H])(C([2H])([2H])[2H])C([2H])([2H])[2H])CN1c1nc(C2CC2)c2c(c1C#N)CC(C)(C)OC2 [Compound 444, (R)-8-cyclopropyl-3,3-dimethyl-6-(2,2,5-trideuterio-4-(3-methoxypropanoyl)-5-(perdeuteriopropan-2-yl)piperazin-1-yl)-3,4-dihydro-1H-pyrano[3,4-c]pyridine-5-carbonitrile] |  |  |
| < 500 nM | < 500 nM | < 500 nM | CSCC(=O)N1CCN(c2nc(C3CC3)c3c(c2C#N)CC(C)(C)OC3)C[C@H]1C(C)C [Compound 445, (R)-8-cyclopropyl-6-(3-isopropyl-4-(2-(methylthio)acetyl)piperazin-1-yl)-3,3-dimethyl-3,4-dihydro-1H-pyrano[3,4-c]pyridine-5-carbonitrile] |  |  |
| < 500 nM | < 500 nM | < 500 nM | [2H]C([2H])([2H])C([2H])(C([2H])([2H])[2H])[C@@]1([2H])N(C(=O)CCC(=O)OC)C([2H])([2H])C([2H])([2H])N(c2nc(C3CC3)c3c(c2C#N)CC(C)(C)OC3)C1([2H])[2H] [Compound 450] |  |  |
| 500 to 1000 nM | < 500 nM | 1000 to 10000 nM | [2H]C([2H])([2H])C([2H])(C([2H])([2H])[2H])[C@@]1([2H])N(C(=O)CC(F)(F)F)C([2H])([2H])C([2H])([2H])N(c2nc(C3CC3)c3c(c2C#N)CC(C)(C)OC3)C1([2H])[2H] [Compound 452, (R)-8-cyclopropyl-6-(2,2,3,3,5,6,6-heptadeuterio-5-(perdeuteriopropan-2-yl)-4-(3,3,3-trifluoropropanoyl)piperazin-1-yl)-3,3-dimethyl-3,4-dihydro-1H-pyrano[3,4-c]pyridine-5-carbonitrile] |  |  |
| < 500 nM | 500 to 1000 nM | < 500 nM | CC(C)[C@@H]1CN(c2nc(C3CC3)c3c(c2C#N)CC(C)(C)OC3)CCN1C(=O)Cc1nnco1 [Compound 455, (R)-6-(4-(2-(1,3,4-oxadiazol-2-yl)acetyl)-3-isopropylpiperazin-1-yl)-8-cyclopropyl-3,3-dimethyl-3,4-dihydro-1H-pyrano[3,4-c]pyridine-5-carbonitrile] |  |  |
| < 500 nM | < 500 nM | 500 to 1000 nM | CCOC(=O)CCC(=O)N1CCN(c2nc(C3CC3)c3c(c2C#N)CC(C)(C)OC3)C[C@H]1C(C)C [Compound 456, (R)-ethyl-4-(4-(5-cyano-8-cyclopropyl-3,3-dimethyl-3,4-dihydro-1H-pyrano[3,4-c]pyridin-6-yl)-2-isopropylpiperazin-1-yl)-4-oxobutanoate] |  |  |
| 500 to 1000 nM | < 500 nM | 500 to 1000 nM | CC(C)OC(=O)CCC(=O)N1CCN(c2nc(C3CC3)c3c(c2C#N)CC(C)(C)OC3)C[C@H]1C(C)C [Compound 457, (R)-isopropyl 4-(4-(5-cyano-8-cyclopropyl-3,3-dimethyl-3,4-dihydro-1H-pyrano[3,4-c]pyridin-6-yl)-2-isopropylpiperazin-1-yl)-4-oxobutanoate] |  |  |
| < 500 nM | < 500 nM | < 500 nM | CC1(C)Cc2c(C#N)c(N3CCN(C(=O)CCO)[C@H](C4CC4)C3)nc(C3CC3)c2CO1 [Compound 460, (R)-8-cyclopropyl-6-(3-cyclopropyl-4-(3-hydroxypropanoyl)piperazin-1-yl)-3,3-dimethyl-3,4-dihydro-1H-pyrano[3,4-c]pyridine-5-carbonitrile] |  |  |
| < 500 nM | < 500 nM | 500 to 1000 nM | CC1(C)Cc2c(C#N)c(N3CCN(C(=O)C4CC4)[C@H](C4CC4)C3)nc(C3CC3)c2CO1 [Compound 461, (R)-6-(4-(cyclopropanecarbonyl)-3-cyclopropylpiperazin-1-yl)-8-cyclopropyl-3,3-dimethyl-3,4-dihydro-1H-pyrano[3,4-c]pyridine-5-carbonitrile] |  |  |
| 500 to 1000 nM | < 500 nM | 500 to 1000 nM | CC(C)[C@@H]1CN(c2nc(C3CC3)c3c(c2C#N)CC(C)(C)OC3)CCN1C(=O)[C@@H]1C[C@H]1CO [Compound 462, 8-Cyclopropyl-6-((R)-4-((1R,2R)-2-(hydroxymethyl)cyclopropanecarbonyl)-3-isopropylpiperazin-1-yl)-3,3-dimethyl-3,4-dihydro-1H-pyrano[3,4-c]pyridine-5-carbonitrile] |  |  |
| 1000 to 10000 nM | 500 to 1000 nM | 1000 to 10000 nM | CC1(C)Cc2c(C#N)c(N3CCN(C(=O)C4CC4)C(C(F)F)C3)nc(C3CC3)c2CO1 (stereo not drawn) [Compound 463, 6-(4-(cyclopropanecarbonyl)-3-(difluoromethyl)piperazin-1-yl)-8-cyclopropyl-3,3-dimethyl-3,4-dihydro-1H-pyrano[3,4-c]pyridine-5-carbonitrile] |  |  |

| SMILES | IC50 (U87R132H (U87MG) cells; Homo sapiens, U-87 MG) | IC50 (IDH1 R132H) | IC50 (HT1080 cells; [1]) | IC50 (U87R132H (U87MG) cells) | IC50 (HT1080 cells; 48 hours) |
| --- | --- | --- | --- | --- | --- |
| COC(=O)[C@@H]1C[C@H]1C(=O)N1CCN(c2nc(C3CC3)c3c(c2C#N)CC(C)(C)OC3)C[C@H]1C(C)C [Compound 454] |  | < 500 nM |  | 500 to 1000 nM | 500 to 1000 nM |
